According to ChEMBL document CHEMBL1123443, “Synthesis and evaluation of 1-(arylsulfonyl)-2-[(methoxycarbonyl)sulfenyl]-1-methylhydrazines++ + as antineoplastic agents” (1986):

How the values were obtained:
Format in all cases: functional, Mus musculus
[1] = test system: B16; experiment: Effect of compound on the body weight of mice bearing the B16 melanoma at a daily dose of 12.5 mg/kg
[2] = test system: B16; experiment: Effect of compound on the survival time of mice bearing the B16 melanoma at a daily dose of 150 mg/kg
[3] = test system: B16; experiment: Effect of compound on the body weight of mice bearing the B16 melanoma at a daily dose of 150 mg/kg
[4] = test system: B16; experiment: Effect of compound on the survival time of mice bearing the B16 melanoma at a daily dose (mg/kg) of,50
[5] = test system: B16; experiment: Effect of compound on the body weight of mice bearing the B16 melanoma at a daily dose of 100 mg/kg
[6] = test system: B16; experiment: Effect of compound on the survival time of mice bearing the B16 melanoma at a daily dose of 100 mg/kg
[7] = test system: B16; experiment: Effect of compound on the body weight of mice bearing the B16 melanoma at a daily dose of 25 mg/kg
[8] = test system: B16; experiment: Effect of compound on the survival time of mice bearing the B16 melanoma at a daily dose of 25 mg/kg
[9] = test system: B16; experiment: Effect of compound on the survival time of mice bearing the B16 melanoma at a daily dose (mg/kg) of 50
[10] = test system: B16; experiment: Effect of compound on the survival time of mice bearing the B16 melanoma at a daily dose of 12.5 mg/kg
[11] = test system: B16; experiment: Effect of compound on the body weight of mice bearing the B16 melanoma at a daily dose of 50 mg/kg
[12] = test system: L1210; experiment: Effect of compound on the body weight of mice bearing the L1210 leukemia at a daily dose of 12.5-50 mg/kg
[13] = test system: L1210; experiment: Effect of compound on the survival time of mice bearing the L1210 leukemia at a daily dose (mg/kg) of 12.5-50
[14] = test system: L1210; experiment: Effect of compound on the survival time of mice bearing the L1210 leukemia at a daily dose of 12.5-50 mg/kg
[15] = test system: B16; experiment: Effect of compound on the survival time of mice bearing the B16 melanoma at a daily dose of 50 mg/kg

Row | Compound | Change in weight [1] | T/C [2] | Change in weight [3] | T/C [4] | Change in weight [5] | T/C [6] | Change in weight [7] | T/C [8] | T/C [9] | T/C [10] | Change in weight [11] | Change in weight [12] | T/C [13] | T/C [14] | T/C [15]
1 | CN(C)/N=N/c1[nH]cnc1C(N)=O [DACARBAZINE] | -2.3% | 177% | -5.7% | 135% | -4.4% | 161% | – | – | – | – | – | – | – | – | –
2 | COC(=O)SNN(C)S(=O)(=O)c1ccc2ccccc2c1 | -0.2% | – | – | – | – | – | 1.4% | 140% | 163% | 123% | -4.8% | – | – | – | –
3 | COC(=O)SNN(C)S(=O)(=O)c1ccc(Br)cc1 | -2% | – | – | – | – | – | -5.5% | 146% | 160% | 144% | -11.4% | -0.2% | 122% | – | –
4 | COC(=O)SNNS(=O)(=O)c1ccc(C)cc1 | 1.6% | – | – | – | – | – | 3.7% | 113% | 98% | 100% | -0.4% | – | – | – | –
5 | COC(=O)SNN(C)S(=O)(=O)c1ccc(OC)cc1 | -0.2% | – | – | – | – | – | -6.4% | 160% | 177% | 148% | -18.7% | -6.7% | 149% | – | –
6 | COC(=O)SNN(C)S(=O)(=O)c1ccc(C)cc1 | 0.7% | – | – | – | – | – | -3.3% | 199% | 232% | 182% | -17.7% | -4.2% | 118% | – | –
7 | COC(=O)SNN(C)S(=O)(=O)Cc1ccccc1 | -2.5% | – | – | – | – | – | -14.8% | 157% | 59% | 152% | -27.4% | -8% | 100% | – | –
8 | COC(=O)SNN(C)S(=O)(=O)c1ccccc1 | -5.2% | – | – | – | – | – | -13% | 183% | – | 169% | -33.4% | -10.9% | – | 113% | 49%
